Assay results taken from patent publication US5869460A, “Sulfated and phosphated saccharide derivatives, process for the preparation of the same and use thereof” (Sanwa Kaguku Kenkyusho Co., Ltd., priority 1995, dated 1999).

Tests used:
[1] = tested on: lung damage model induced by cobra venom factor (CVF); bleeding; test: Anti-inflammatory action to lung damage model induced by CVF: index of bleeding (hemoglobin absorbance, 541 nm, in lung homogenate supernatant); format: in vivo, Lewis rats; conditions: Rattus norvegicus, iv, 0.5 h, read-out: Inhibition rate (%), index of bleeding
Procedure: (§1) Anti-inflammatory action to lung damage model induced by CVF Compounds obtained by Examples and an exemplary known compound (sulfatide) were selected as Test Compounds to check an inflammatory action thereof to a lung damage model induced by cobra venom factor (CVF), in accordance with the method described by M. S. Mulligan et al ["J. IMMUNOL.", Vol.151, page 6410 (1993); and "INT. IMMUNOL.", Vol. 7, page 1107 (1995)].
(§2) Namely, the test compound was intravenously injected by an amount of 0.2 mg/rat to test animals (Lewis rats, age of 8 weeks, 5 animals in each group). After lapsed 5 minutes from administration, CVF (20U/2 ml/kg) was administered in a tail vein, and after 30 minutes, a laparotomy was carried out under nembutal anesthesia to perfuse the lung with phosphate-buffered saline (PBS, pH7.4) by injecting the same from right ventricle and to exenterate the lung. The extracted lung was homogenized with phosphate buffer (pH 7.4), centrifuged to collect a supernatant, and determined absorbance which was admitted as index of bleeding (It measures an amount of hemoglobin and thus detection wave-length was set to 541 nm).
(§3) Each inhibition rate (%) was calculated by
(§4) 100×[1-(value of test compound-value of negative control)/(value of positive control-value of negative control)].

[2] = tested on: lung damage model induced by cobra venom factor (CVF); infiltration in neutrocyte (myeloperoxidase); test: Anti-inflammatory action to lung damage model induced by CVF: myeloperoxidase activity as index of infiltration in neutrocyte; format: in vivo, Lewis rats; conditions: Rattus norvegicus, iv, 0.5 h, read-out: Inhibition rate (%), myeloperoxidase activity as index of infiltration in neutrocyte
Procedure: as §1, §2
On the other hand, the precipitation obtained by centrifugation was sonicated in the presence of cetrimide and centrifuged to obtain a supernatant, an activity myeloperoxidase therein being measured as an index of infiltration in neutrocyte.
as §3, §4

Row | SMILES | inhibition in vivo at 0.2 mg [1] [%] | inhibition in vivo at 0.2 mg [2] [%]
1 | CC(C)CO[C@@H]1O[C@H](CO)[C@H](O)[C@H](OS(=O)(=O)O)[C@H]1O [Example 1-1, Sodium 2-methylpropyl β-D-galactopyranoside 3-sulfate] | 22 | 22
2 | CC(C)CO[C@@H]1O[C@H](COS(=O)(=O)O)[C@H](O)[C@H](OS(=O)(=O)O)[C@H]1O [Example 1-2, disodium 2-methylpropyl β-D-galactopyranoside 3,6-disulfate] | 16 | 22
3 | CC(C)CO[C@@H]1O[C@H](COS(=O)(=O)O)[C@H](O)[C@H](O)[C@H]1O [Example 2, Sodium 2-methylpropyl β-D-galactopyranoside 6-sulfate] | 36 | 32
4 | CC(C)CO[C@@H]1O[C@H](COS(=O)(=O)O)[C@H](OS(=O)(=O)O)[C@H](OS(=O)(=O)O)[C@H]1O [Example 3-1, trisodium 2-methylpropyl β-D-galactopyranoside 3,4,6-trisulfate] | 27 | 36
5 | CC(C)CO[C@@H]1O[C@H](COS(=O)(=O)O)[C@H](OS(=O)(=O)O)[C@H](OS(=O)(=O)O)[C@H]1OS(=O)(=O)O [Example 3-2, tetrasodium 2-methylpropyl β-D-galactopyranoside 2,3,4,6-tetrasulfate] | 49 | 24
6 | CCCC(CCC)CO[C@@H]1O[C@H](CO)[C@H](O)[C@H](OS(=O)(=O)O)[C@H]1O [Example 4, Sodium 2-pronylpentyl β-D-galactopyranoside 3-sulfate] | 39 | 58
7 | CCCC(CCC)CO[C@@H]1O[C@H](COS(=O)(=O)O)[C@H](O)[C@H](O)[C@H]1O [Example 5, Sodium 2-propylpentyl β-D-galactopyranoside 6-sulfate] | 52 | 47
8 | CCCC(CCC)CO[C@@H]1O[C@H](COS(=O)(=O)O)[C@H](O)[C@H](OS(=O)(=O)O)[C@H]1O [Example 6, Disodium 2-propylpentyl β-D-galactopyranoside 3,6-disulfate] | 0 | 12
9 | CCCC(CCC)CO[C@@H]1O[C@H](COS(=O)(=O)O)[C@H](O)[C@H](OS(=O)(=O)O)[C@H]1OS(=O)(=O)O [Example 7-1, Trisodium 2-propylpentyl β-D-galactopyranoside 2,3,6-trisulfate] | 36 | 26
10 | CCCC(CCC)CO[C@@H]1O[C@H](COS(=O)(=O)O)[C@H](OS(=O)(=O)O)[C@H](OS(=O)(=O)O)[C@H]1OS(=O)(=O)O [Example 7-2, tetrasodium 2-propylpentyl β-D-galactopyranoside 2,3,4,6-tetrasulfate] | 42 | 42
11 | CCCCCCCCCCCCCCCCCCCCCCC(CCCCCCCCCCCCCCCC)CO[C@@H]1O[C@H](CO)[C@H](O)[C@H](OS(=O)(=O)O)[C@H]1O (stereo partly drawn) [Example 8, Sodium 2-hexadecyltetracosyl β-D-galactopyranoside 3-sulfate] | 53 | 51
12 | CC(C)CO[C@@H]1O[C@H](CO)[C@@H](O[C@@H]2O[C@H](CO)[C@H](O)[C@H](OS(=O)(=O)O)[C@H]2O)[C@H](O)[C@H]1O [Example 9-1, sodium 2-methylpropyl O-β-D-galactopyranosyl-(1→4)-β-D-glucopyranoside 3'-sulfate] | 84 | 58
13 | CC(C)CO[C@@H]1O[C@H](CO)[C@@H](O[C@@H]2O[C@H](COS(=O)(=O)O)[C@H](O)[C@H](OS(=O)(=O)O)[C@H]2O)[C@H](O)[C@H]1O [Example 9-2, disodium 2-methylpropyl O-β-D-galactopyranosyl-(1→4)-β-D-glucopyranoside 3',6'-disulfate] | 100 | 86
14 | CCCC(CCC)CO[C@@H]1O[C@H](CO)[C@@H](O[C@@H]2O[C@H](CO)[C@H](O)[C@H](OS(=O)(=O)O)[C@H]2O)[C@H](O)[C@H]1O [Example 10-1, Sodium 2-propylpentyl O-β-D-galactopyranosyl-(1→4)-β-D-glucopyranoside 3'-sulfate] | 65 | 66
15 | CCCC(CCC)CO[C@@H]1O[C@H](CO)[C@@H](O[C@@H]2O[C@H](COS(=O)(=O)O)[C@H](O)[C@H](OS(=O)(=O)O)[C@H]2O)[C@H](O)[C@H]1O [Example 10-2, disodium 2-propylpentyl O-β-D-galactopyranosyl-(1→4)-β-D-glucopyranoside 3',6'-disulfate] | 63 | 82
16 | CCCCCCCCCCCCCCC(CCCCCCCCCCCCCC)CO[C@@H]1O[C@H](CO)[C@@H](O[C@@H]2O[C@H](COS(=O)(=O)O)[C@H](O)[C@H](OS(=O)(=O)O)[C@H]2O)[C@H](O)[C@H]1O [Example 11-1, Disodium 2-tetradecylhexadecyl O-β-D-galactopyranosyl-(1→4)-β-D-glucopyranoside 3',6'-disulfate] | 100 | 82
17 | CCCCCCCCCCCCCCC(CCCCCCCCCCCCCC)CO[C@@H]1O[C@H](COS(=O)(=O)O)[C@@H](O[C@@H]2O[C@H](COS(=O)(=O)O)[C@H](O)[C@H](OS(=O)(=O)O)[C@H]2O)[C@H](O)[C@H]1O [Example 11-2, trisodium 2-tetradecylhexadecyl O-β-D-galactopyranosyl-(1→4)-β-D-glucopyranoside 3',6',6-trisulfate] | 82 | 70
18 | CC(C)CO[C@@H]1O[C@H](COP(=O)(O)O)[C@H](OP(=O)(O)O)[C@H](OP(=O)(O)O)[C@H]1OP(=O)(O)O [Example 12, Octasodium 2-methylpropyl β-D-galactopyranoside 2,3,4,6-tetranhosphate] | 0 | 30
19 | CCCC(CCC)CO[C@@H]1O[C@H](COP(=O)(O)O)[C@H](OP(=O)(O)O)[C@H](OP(=O)(O)O)[C@H]1OP(=O)(O)O [Example 13, Octasodium 2-propylpentyl β-D-galactopyranoside 2,3,4,6-tetranhosphate] | 43 | 46
20 | CCCCCCCCCCCCCCC(CCCCCCCCCCCCCC)CO[C@@H]1O[C@H](COP(=O)(O)O)[C@H](OP(=O)(O)O)[C@H](OP(=O)(O)O)[C@H]1OP(=O)(O)O [Example 14, Octasodium 2-tetradecylhexadecyl β-D-galactopyranoside2,3,4,6-tetraphosphate] | 55 | 41
21 | CC(C)CO[C@@H]1O[C@H](CO)[C@H](OP(=O)(O)O)[C@H](OP(=O)(O)O)[C@H]1O [Example 15, Tetrasodium 2-methylpropyl β-D-galactopyranoside 3,4-diphosphate] | 45 | 44
22 | CCCC(CCC)CO[C@@H]1O[C@H](CO)[C@H](OP(=O)(O)O)[C@H](OP(=O)(O)O)[C@H]1O [Example 16, Tetrasodium 2-propylpentyl β-D-galactopyranoside 3,4-diphosphate] | 75 | 70
23 | CCCCCCCCCCCCCCC(CCCCCCCCCCCCCC)CO[C@@H]1O[C@H](CO)[C@H](OP(=O)(O)O)[C@H](OP(=O)(O)O)[C@H]1O [Example 17, Tetrasodium 2-tetradecylhexadecyl β-D-galactopyranoside 3,4-dinhosphate] | 74 | 73
24 | CCCC(CCC)CO[C@@H]1O[C@H](CO)[C@H](O)[C@H](OP(=O)(O)O)[C@H]1O [Example 18, Disodium 2-propylpentyl β-D-galactopyranoside 3-phosphate] | 50 | 51
25 | CCCC(CCC)CO[C@@H]1O[C@H](CO)[C@@H](O)[C@H](OP(=O)(O)O)[C@H]1OP(=O)(O)O [Example 19, Tetrasodium 2-propylpentyl β-D-glucopyranoside 2,3-diphosphate] | 43 | 39
26 | CCCC(CCC)CO[C@@H]1O[C@H](CO)[C@@H](OP(=O)(O)O)[C@H](OP(=O)(O)O)[C@H]1OP(=O)(O)O [Example 20, Hexasodium 2-propylpentyl δ-D-glucopyranoside 2,3,4-triphosphate] | 45 | 40
27 | CCCC(CCC)CO[C@@H]1O[C@H](CO)[C@@H](O[C@@H]2O[C@H](CO)[C@H](OP(=O)(O)O)[C@H](OP(=O)(O)O)[C@H]2O)[C@H](O)[C@H]1O [Example 21, Tetrasodium 2-propylpentyl O-β-D-galactopyranosyl-(1→4)-β-D-glucopyranoside 3',4'-diphosphate] | 64 | 52
